{"source": "paper PMC10671052", "about": "“Naphthyl-Substituted Indole and Pyrrole Carboxylic Acids as Effective Antibiotic Potentiators—Inhibitors of Bacterial Cystathionine γ-Lyase” (International Journal of Molecular Sciences, 2023)", "key": {"[1]": {"molecular_target": "S. aureus cystathionine-γ-lyase (bCSE) (Staphylococcus aureus, UniProt A0A0H3K724)", "sequence (A0A0H3K724 entry or part of it)": "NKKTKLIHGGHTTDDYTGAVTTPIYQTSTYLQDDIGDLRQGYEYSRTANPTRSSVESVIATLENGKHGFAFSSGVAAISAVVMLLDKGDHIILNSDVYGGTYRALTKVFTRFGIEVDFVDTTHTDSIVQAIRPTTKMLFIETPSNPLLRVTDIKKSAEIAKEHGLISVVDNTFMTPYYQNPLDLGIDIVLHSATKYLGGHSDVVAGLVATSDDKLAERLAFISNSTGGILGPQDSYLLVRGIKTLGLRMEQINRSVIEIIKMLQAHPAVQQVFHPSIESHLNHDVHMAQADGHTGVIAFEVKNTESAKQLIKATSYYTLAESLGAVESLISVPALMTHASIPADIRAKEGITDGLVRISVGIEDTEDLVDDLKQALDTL", "test": "IC50 assay: inhibition of H2S production by purified bCSE, WSP5 fluorescent probe", "format": "biochemical", "description": "(§1) Fluorescence spectrophotometry-based inhibitory activity toward purified bCSE and hCSE was measured in a 96-well nonbinding black plate (Greiner, Kremsmunster, Austria) at 100 μL of the reaction mixture per well. bCSE and hCSE (0.02 μM) were preincubated in a thermoshaker (Biosan, Riga, Latvia) (30 °C, 300 rpm) for 40 min in 50 mM sodium phosphate buffer (pH 8.0), supplemented with 10 μM pyridoxal 5′-phosphate (Sigma-Aldrich, St. Louis, MO, USA), 0.1% of Tween 20 (Sigma-Aldrich, St. Louis, MO, USA), and 1.2 μM Washington State Probe-5 (Cayman Chemical, Ann Arbor, MI, USA) (excitation: 500 nm, emission: 530 nm) at different concentrations of a tested inhibitor. The reaction was initiated by the addition of 100 μM L-cysteine (TCI, Chennai, Tamil Nadu, India) in 50 mM sodium phosphate buffer pH 8.0 to the reaction mixture, and the enzymatic activity was monitored for 12 h using a CLARIOstar Plus instrument (BMG LABTECH GmbH, Ortenberg, Germany). The 100 µM L-cysteine concentration used in the experiments corresponds to the maximal reported intracellular concentration in bacteria. The data were normalized to the positive and negative controls, and IC50 values were obtained by fitting to a four-parameter sigmoidal curve (inhibitor vs. response, variable slope model) in GraphPad Prism 8 software (GraphPad by Dotmatics, Boston, MA, USA). Each experiment was conducted with 2–3 technical replicates. IC50 values were means of at least two independent experiments.\n(§2) For the production of S. aureus cystathionine-γ-lyase (bCSE) and of human cystathionine-γ-lyase (hCSE), plasmids pSUMO:saCSE (Addgene # 54336) and pNIC28-Bsa4 (Addgene # 42365) were employed. Cultivation of a competent E. coli cell strain (Thermo Fisher Scientific, Waltham, MA, USA), transformed with a target plasmid, was carried out on a selective solid medium with kanamycin. Bacterial cells harboring the plasmid vector were cultured at 37 °C and 180 rpm until OD600 = 0.65. Then, isopropyl β-D1-thiogalactopyranoside (IPTG) was added to a final concentration of 1 mM. To obtain bCSE, the cells were cultured for 3.5 h at 37 °C; to obtain hCSE, the cells were cultured for 18–20 h at 25 °C. After centrifugation, cells were resuspended in a buffer composed of 50 mM Tris–HCl, at a pH of 8.0, and 300 mM sodium chloride. After that, the cells were lysed by ultrasonication, with a pulse duration of 15 s and an interval between pulses of 15 s. The amplitude of the ultrasonic vibrations was 50% of the maximum. After lysis, samples were centrifuged for 15 min (20,000× g at 4 ℃). The pH of the supernatant obtained after the centrifugation was adjusted to 7.5 by the addition of a 1 M solution of Tris–OH. Then, the test sample was subjected to filtration through a polyethersulfone membrane with a pore diameter of 0.22 μm."}, "[2]": {"molecular_target": "T1, human cystathionine-γ-lyase (hCSE) (Homo sapiens, UniProt P32929)", "T1 construct": "His6-TEV (N, cleaved yes); host or cells: E. coli", "T1 sequence (P32929 whole entry)": "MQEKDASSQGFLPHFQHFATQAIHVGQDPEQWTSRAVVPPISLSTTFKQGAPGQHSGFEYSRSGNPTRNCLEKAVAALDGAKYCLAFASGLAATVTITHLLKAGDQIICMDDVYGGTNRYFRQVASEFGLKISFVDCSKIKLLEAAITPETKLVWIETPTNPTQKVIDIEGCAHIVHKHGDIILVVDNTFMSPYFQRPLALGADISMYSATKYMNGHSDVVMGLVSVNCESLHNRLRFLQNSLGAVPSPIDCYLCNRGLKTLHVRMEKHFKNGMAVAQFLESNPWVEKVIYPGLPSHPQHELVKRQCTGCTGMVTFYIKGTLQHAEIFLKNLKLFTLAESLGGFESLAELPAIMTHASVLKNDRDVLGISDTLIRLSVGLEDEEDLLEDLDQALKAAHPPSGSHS", "test": "IC50 assay: inhibition of H2S production by purified hCSE, WSP5 fluorescent probe", "format": "biochemical", "conditions": "purified hCSE 0.02 μM, 100 μM L-cysteine, WSP5 probe, mean ± SD; read-out: IC50 biochemical assay hCSE", "description": "as §1, §2"}, "bCSE": {"molecular_target": "bCSE", "set-up": "method as in PMID 34112687", "conditions": "NL2 is from ref 13; read-out: experimental inhibition constant; cited from earlier work"}, "[3]": {"tested_on": "A. baumannii GIMC5509:ABT-52Ts19", "test": "MIC of antibiotics alone and with potentiators, clinical isolate", "protocol": "(§3) Overnight (ON) culture of a specific strain was grown in the liquid Luria–Bertani nutrient medium (LB broth, BD Difco) for 18 h at 37 °C, with agitation at 180 rpm using an Innova 44R orbital shaker (Eppendorf, Hamburg, Germany). After a certain period, 50 µL of the ON culture was transferred into 5 mL of the LB medium and grown for 3 h at 37 °C with agitation. Growth in the liquid medium was assessed by means of turbidity of the suspension, measured using a Densi-La-Meter II densitometer (Erba Lachema s.r.o., Brno, Czech Republic). Then, the bacterial suspension was diluted to the concentration 10^6 cells/mL with sterile LB and used as a seed culture [38, 39].\n(§4) For the assessment of MICs, 96-well microtiter plates were utilized at 200 µL of a medium per well. Each well was filled with 100 µL of the seed culture. After that, 10 µL of a solution of each tested synthetic compound (potentiators) was added into each experimental well. Finally, 90 µL of twofold serial dilutions of an antibiotic in a sterile LB was added into individual wells.\n(§5) As a positive control, we set up wells with 100 µL of the bacterial culture and 100 µL of the sterile LB medium. […] Negative-control wells contained 200 µL of the sterile medium. The plates were incubated in a thermostat for 18–20 h at 37 °C. The bacterial growth was assessed as optical density at 600 nm on a CLARIOstar microplate reader (BMG LABTECH GmbH, Ortenberg, Germany))."}, "[4]": {"tested_on": "P. aeruginosa GIMC5016:PA1840/36/2015", "test": "MIC of antibiotics alone and with potentiators, clinical isolate", "protocol": "as §3, §4, §5"}, "[5]": {"conditions": "A. baumannii GIMC5509:ABT-52Ts19, potentiator 50 µg/mL"}, "[6]": {"conditions": "P. aeruginosa GIMC5016:PA1840/36/2015, potentiator 50 µg/mL"}}}
{"compound": "Cc1oc(Cn2ccc3ccc(Br)cc32)cc1C(=O)O", "note": "[NL2, 5-((6-bromo-1H-indol-1-yl)methyl)-2-methylfuran-3-carboxylic acid]", "values": [{"measurement": "IC50", "setting": "[1]; IC50 (uM), bCSE enzymatic IC50, rounded, repeated in Table S13", "result": 144, "unit": "µM"}, {"measurement": "IC50", "setting": "[1]; IC50 (uM), bCSE enzymatic IC50, rounded, repeated in Table S14", "result": 144, "unit": "µM"}, {"measurement": "IC50", "setting": "[1]; IC50 biochemical assay bCSE, purified bCSE 0.02 μM, 100 μM L-cysteine, WSP5 probe, mean ± SD", "result": "144 ± 9", "unit": "µM"}, {"measurement": "IC50", "setting": "[2]", "result": "> 500", "unit": "µM"}, {"measurement": "Ki", "setting": "bCSE", "result": 1.8, "unit": "µM"}, {"measurement": "MIC of Tacillin in combination with potentiator", "setting": "[3]; A. baumannii GIMC5509:ABT-52Ts19, piperacillin + tazobactam, potentiator 50 µg/mL", "result": 128, "unit": "µg/mL"}, {"measurement": "MIC of Cefepim in combination with potentiator", "setting": "[3]; [5]", "result": 128, "unit": "µg/mL"}, {"measurement": "MIC of Meropenem in combination with potentiator", "setting": "[3]; [5]", "result": 32, "unit": "µg/mL"}, {"measurement": "MIC of Tacillin in combination with potentiator", "setting": "[4]; P. aeruginosa GIMC5016:PA1840/36/2015, piperacillin + tazobactam, potentiator 50 µg/mL", "result": 32, "unit": "µg/mL"}, {"measurement": "MIC of Cefepim in combination with potentiator", "setting": "[4]; [6]", "result": 64, "unit": "µg/mL"}, {"measurement": "MIC of Gentamicin in combination with potentiator", "setting": "[4]; [6]", "result": "> 512", "unit": "µg/mL"}, {"measurement": "MIC of Meropenem in combination with potentiator", "setting": "[4]; [6]", "result": 8, "unit": "µg/mL"}]}
